According to patent US10155027B2, “Alpha-galactosidase A and 1-deoxygalactonojirimycin co-formulation for the treatment of fabry disease” (Amicus Therapeutics, Inc., priority 2012, dated 2018):
Counter-ions that a name gives are not always drawn. Like-named read-outs stand apart in the source and are kept apart here.

What was measured:
[1] = molecular target: T1, α-Gal A (Homo sapiens, UniProt P06280); assay: α-Gal A stability in whole blood ex vivo at 37° C.; assay type: in vitro ADME; conditions: 5 nM and 50 nM α-Gal A formulated with 10 μM DGJ
T1 construct: purchased JCR Pharmaceuticals Co. Ltd, (Japan) JR-051; host or cells: CHO cells
T1 sequence (P06280 32-429): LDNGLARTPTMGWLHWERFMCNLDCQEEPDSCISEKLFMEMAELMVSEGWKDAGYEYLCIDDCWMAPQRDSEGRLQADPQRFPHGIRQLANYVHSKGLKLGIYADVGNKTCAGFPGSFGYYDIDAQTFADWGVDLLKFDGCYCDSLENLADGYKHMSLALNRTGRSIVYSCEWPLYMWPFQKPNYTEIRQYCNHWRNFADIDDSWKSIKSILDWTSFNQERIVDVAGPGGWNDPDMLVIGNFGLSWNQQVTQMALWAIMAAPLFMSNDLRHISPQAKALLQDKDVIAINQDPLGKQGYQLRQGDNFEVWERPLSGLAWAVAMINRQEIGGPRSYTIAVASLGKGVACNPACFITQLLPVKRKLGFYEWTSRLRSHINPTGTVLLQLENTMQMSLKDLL
Procedure: The effect of co-formulating α-Gal A with DGJ on α-Gal A stability in blood ex vivo was examined. Time-dependent loss of α-Gal A activity in whole blood at 37° C. was determined. 5 nM and 50 nM α-Gal A was formulated with or without 10 μM DGJ.

[2] = General toxicology NOAEL, rat; assay type: in vivo
[3] = General toxicology NOAEL, monkey; assay type: in vivo
[4] = Phase 1 crossover absolute bioavailability, 150 mg oral capsule vs 150 mg IV infusion (Cohort 4); assay type: in vivo, human; conditions: for Vd: iv, 150 mg; for Cmax: read-out: Cmax (geometric mean); for AUC(0-t): read-out: AUC0-t (geometric mean); for AUC(0-inf): read-out: AUC0-∞ (geometric mean); for Tmax: read-out: tmax (median); for half-life: read-out: t½ (arithmetic mean) (converted)
Procedure: Healthy volunteers received migalastat HCl (DGJ HCl) via the intravenous (IV) route of administration to evaluate safety, tolerability, and pharmacokinetics. Another study was performed to determine the absolute bioavailability of migalastat after an oral capsule dose as compared to an IV administered dose of migalastat HCl in healthy volunteers. The absolute bioavailability arm was added to determine the exposure ratio of a 150 mg oral dose relative to a 150 mg dose administered as an IV infusion.
Type of Study: This Phase 1 study was a single-center study consisting of 2 designs. Cohorts 1, 2, and 3 were performed according to a randomized, double-blind, placebo-controlled, single ascending dose (SAD) IV study design to evaluate the safety, tolerability, and PK of IV administered migalastat HCl or IV administered placebo in healthy subjects. Cohort 4 was an open-label, randomized two-way crossover arm designed to assess the absolute bioavailability of orally administered migalastat HCl relative to IV administered migalastat HCl in healthy subjects.
Cohort 4 consisted of 2 sequential treatment periods with a washout period of 7 days between study drug administrations (FIG. 13). Cohort 4 enrolled 10 subjects all of whom received active drug (no placebo was administered). Cohort 4 was randomized such that 5 subjects received the oral formulation and 5 subjects received the IV formulation during Period 1, followed by the alternate formulation during Period 2. • * During Period 1, all Day −1 through Day 3 assessments were performed. ** The washout period was 7 days. *** During Period 2, subjects repeated all Day −1 through Day 3 assessments.
Cohort 4: Period 1: 150 mg migalastat HCl capsule (n=5) or 150 mg migalastat HCl via IV infusion (n=5). Period 2: 150 mg migalastat HCl capsule (n=5) or 150 mg migalastat HCl via IV infusion (n=5)
The migalastat HCl used for infusion was 50 mg/ml and the placebo was 0.9% sodium chloride. The oral migalastat HCl was administered as a 150 mg gelatin […].

[5] = Phase 2a study of oral migalastat HCl co-administered with agalsidase in Fabry patients; assay type: in vivo, human; conditions: 23 Fabry patients; single oral 150 mg with 0.2, 0.5, and 1.0 mg/kg agalsidase
[6] = not given; remark: listed apart in the source
[7] = predicted human exposure at 0.3 mg/kg IV
[8] = predicted human exposure at 10.0 mg/kg IV
[9] = predicted exposure at 0.3 mg/kg IV
[10] = predicted exposure at 10.0 mg/kg IV

SMILES: OC[C@H]1NC[C@H](O)[C@@H](O)[C@H]1O [migalastat HCl, (2R,3S,4R,5S)-2-(hydroxymethyl) piperdine-3,4,5-triol]
- effect on α-Gal A stability in whole blood [1]: stabilized the enzyme and prevented enzyme inactivation
- Fold Cover to NOAEL AUC, Rat [2, 7]: 134
- Fold Cover to NOAEL Cmax, Rat [2, 7]: 65
- Fold Cover to NOAEL AUC, Rat [2, 8]: 4.05
- Fold Cover to NOAEL Cmax, Rat [2, 8]: 1.93
- AUC ([2]; rat, in vivo, 1500 mg/kg/day): 24900 ng·h/mL
- Cmax ([2]; rat, in vivo, 1500 mg/kg/day): 23400 ng/mL
- NOAEL ([2]; rat, in vivo, general toxicology): 1500 mg/kg/day
- AUC ([3]; monkey, in vivo, 500 mg/kg/day): 30600 ng·h/mL
- Cmax ([3]; monkey, in vivo, 500 mg/kg/day): 24500 ng/mL
- NOAEL ([3]; monkey, in vivo, general toxicology): 500 mg/kg/day
- Fold Cover to NOAEL AUC, Monkey [3, 7]: 165
- Fold Cover to NOAEL Cmax, Monkey [3, 7]: 68
- Fold Cover to NOAEL AUC, Monkey [3, 8]: 4.98
- Fold Cover to NOAEL Cmax, Monkey [3, 8]: 2.02
- CLT (arithmetic mean) ([4]; 150 mg IV): 9.34 L/h
- geometric mean AUC0-t and AUC0-∞, IV relative to oral ([4]; 150 mg IV vs 150 mg oral): approximately 1.3 fold
- geometric mean Cmax, IV relative to oral ([4]; 150 mg IV vs 150 mg oral): approximately 1.9 fold
- maximum arithmetic mean plasma concentrations, IV relative to oral ([4]; 150 mg IV vs 150 mg oral): approximately 2 fold
- CLT/F (arithmetic mean) ([4]; 150 mg oral): 12.8 L/h
- absolute oral bioavailability based on AUC0-t (Percentage Test/Reference) ([4]; 150 mg oral vs 150 mg IV): 74.3%
- absolute oral bioavailability based on AUC0-∞ (Percentage Test/Reference) ([4]; 150 mg oral vs 150 mg IV): 74.6%
- Vd ([4]; human, plasma, 150 mg IV, read-out: Vss (arithmetic mean)): 30.2 L
- Vd ([4]; human, plasma, 150 mg IV, read-out: Vz (arithmetic mean)): 59.4 L
- Cmax ([4]; human, plasma, 150 mg IV, 2-hour infusion): 3380 ng/mL
- AUC(0-t) ([4]; human, plasma, 150 mg IV): 13200 ng·h/mL
- AUC(0-inf) ([4]; human, plasma, 150 mg IV): 13300 ng·h/mL
- Tmax ([4]; human, plasma, 150 mg IV): 1.93 h
- half-life ([4]; human, plasma, 150 mg IV): 4.54 h
- AUC(0-t) ([4]; human, plasma, 150 mg oral): 9780 ng·h/mL
- AUC(0-inf) ([4]; human, plasma, 150 mg oral): 9880 ng·h/mL
- Cmax ([4]; human, plasma, 150 mg oral): 1790 ng/mL
- Vd/F ([4]; human, plasma, 150 mg oral, read-out: Vz/F (arithmetic mean)): 123 L
- Tmax ([4]; human, plasma, 150 mg oral): 2.75 h
- half-life ([4]; human, plasma, 150 mg oral): 7.28 h
- tissue uptake of active α-Gal A into skin [5]: improved tissue uptake of active α-Gal A into skin
- tolerability (oral 150 mg capsule, healthy volunteers and Fabry patients): well tolerated
- linearity of exposure (oral administrations): linear exposures to 1250 mg
- tolerability (single dose administrations up to 2000 mg, healthy volunteers, Phase 1): well tolerated
- Fold Cover to AUC from human oral 1250 mg, Max [6, 9]: 62
- Fold Cover to AUC from human oral 1250 mg, Median [6, 9]: 39
- Fold Cover to AUC from human oral 1250 mg, Min [6, 9]: 15.5
- Fold Cover to Cmax from human oral 1250 mg, Max [6, 9]: 61
- Fold Cover to Cmax from human oral 1250 mg, Median [6, 9]: 36
- Fold Cover to Cmax from human oral 1250 mg, Min [6, 9]: 2.6
- Fold Cover to AUC from human oral 1250 mg, Max [6, 10]: 1.89
- Fold Cover to AUC from human oral 1250 mg, Median [6, 10]: 1.19
- Fold Cover to AUC from human oral 1250 mg, Min [6, 10]: 0.47
- Fold Cover to Cmax from human oral 1250 mg, Max [6, 10]: 1.81
- Fold Cover to Cmax from human oral 1250 mg, Median [6, 10]: 1.07
- Fold Cover to Cmax from human oral 1250 mg, Min [6, 10]: 0.08
